# ± gives the expanded uncertainty stated by the source.
# Settings: Liquid; for mass density: 298.15 K, 101.33 kPa, Pycnometric method
Structure (SMILES),mass density [kg/m3],Normal boiling temperature (boiling in a capillary) [°C],Normal boiling temperature (Distillation) [°C]
O=[N+]([O-])C(C1CC1)(C1CC1)[N+](=O)[O-] [dicyclopropyldinitromethane],1239.7 ± 1,290 ± 3,–
C1CC1C(C1CC1)C1CC1 [tricyclopropylmethane],850 ± 1,–,160 ± 2

# From the NIST ThermoML archive (doi:10.1016/j.jct.2018.12.040)
